Laboratory results published in patent publication US6784137B2, “6-aryl-4-aminopicolinates and their use as herbicides” (Dow AgroSciences LLC, priority 2001, dated 2004).
Read-outs that look alike come from different tables or passages of the source.

Tests used:
[1] = test system: Wheat(var. Merica) (Triticum aestivum); experiment: Postemergence herbicidal activity, selectivity to wheat; assay type: in vivo; details: post-emergence, 336 h, Table 3, rate 62.5 (unit inferred), crop injury, read-out: Post-emergent % control TRZAS
Experimental: (§1) Seeds of the desired test plant species were planted in Grace-Sierra MetroMix® 306 planting mixture, which typically has a pH of 6.0 to 6.8 and an organic matter content of about 30 percent, in plastic pots with a surface area of 64 square centimeters. When required to ensure good germination and healthy plants, a fungicide treatment and/or other chemical or physical treatment was applied. The plants were grown for 7-21 days in a greenhouse with an approximate 15 hr photoperiod which was maintained at about 23-29° C. during the day and 22-28° C. during the night. Nutrients and water were added on a regular basis and supplemental lighting was provided with overhead metal halide 1000-Watt lamps as necessary. The plants were employed for testing when they reached the first or second true leaf stage. A weighed amount, determined by the highest rate to be tested, of each test compound was placed in a 20 mL glass vial and was dissolved in 4 mL of a 97:3 v/v (volume/volume) mixture of acetone and dimethyl sulfoxide (DMSO) to obtain concentrated stock solutions. […] The concentrated stock solutions obtained were diluted with an aqueous mixture containing acetone, water, isopropyl alcohol, DMSO, At plus 411 F crop oil concentrate, and Triton X-155 surfactant in a 48.5:39:10:1.5:1.0:0.02 v/v ratio to obtain spray solutions of known concentration. The solutions containing the highest concentration to be tested were prepared by diluting 2 mL aliquots of the stock solution with 13 mL of the mixture and lower concentrations were prepared by serial dilution of the stock solution. Approximately 1.5 mL aliquots of each solution of known concentration were sprayed evenly onto each of the test plant pots using a DeVilbiss atomizer driven by compressed air pressure of […] (140 to 280 kiloPascals) to obtain thorough coverage of each plant. Control plants were sprayed in the same manner with the aqueous mixture. In this test an application rate of 1 ppm results in the application of approximately 1 g/Ha. The treated plants and control plants were placed in a greenhouse as described above and watered by sub-irrigation to prevent wash-off of the test compounds. After 2 weeks the condition of the test plants as compared with that of the untreated plants was determined visually and scored on a scale of 0 to 100 percent where 0 corresponds to no injury and 100 corresponds to complete kill.

[2] = test system: Cocklebur (Xanthium strumarium); experiment: Postemergence herbicidal activity, greenhouse spray; assay type: in vivo; details: Xanthium strumarium, post-emergence, 336 h, visual score after 2 weeks, read-out: Post-emergent % control XANST; for pest or weed control at 500 ppm / pest or weed control at 250 ppm: Table 1; for pest or weed control at 500 ppm: rate 500 ppm, 0 no injury, 100 complete kill; for pest or weed control at 250 ppm: rate 250 ppm
Procedure, shortened: (§2)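 Plants grown 7-21 days in a greenhouse (~15 hr photoperiod, about 23-29° C day/22-28° C night) and treated at the first or second true leaf stage. Compounds in acetone:DMSO 97:3 were diluted into an aqueous acetone/isopropyl alcohol/crop oil/Triton X-155 carrier and sprayed to thorough coverage. Controls received carrier alone.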

[3] = test system: Pigweed (redroot) (Amaranthus retroflexus); experiment: as above; assay type: in vivo; details: visual score after 2 weeks; for pest or weed control at 62.5 µg/mL: Amaranthus retroflexus, post-emergence, 336 h, rate 62.5 (unit inferred), read-out: Post-emergent % control AMARE; for Post-emergent % control AMARE: rate 62.5 (unit not given)
Procedure, shortened: as §2

[4] = test system: Barnyardgrass (Echinochloa crus-galli); experiment: as above; assay type: in vivo; details: Echinochloa crus-galli, post-emergence, 336 h, visual score after 2 weeks, read-out: Post-emergent % control ECHCG; for pest or weed control at 500 ppm / pest or weed control at 250 ppm: Table 1; for pest or weed control at 500 ppm: rate 500 ppm; for pest or weed control at 250 ppm: rate 250 ppm
Procedure, shortened: as §2

[5] = test system: Lambsquarter (Chenopodium album); experiment: as above; assay type: in vivo; details: Chenopodium album, post-emergence, 336 h, visual score after 2 weeks, read-out: Post-emergent % control CHEAL; for pest or weed control at 500 ppm / pest or weed control at 250 ppm: Table 1; for pest or weed control at 500 ppm: rate 500 ppm; for pest or weed control at 250 ppm: rate 250 ppm
Procedure, shortened: as §2

[6] = test system: Yellow nutsedge (Cyperus esculentus); experiment: as above; assay type: in vivo; details: Cyperus, post-emergence, 336 h, visual score after 2 weeks, read-out: Post-emergent % control CYPES; for pest or weed control at 500 ppm / pest or weed control at 250 ppm: Table 1; for pest or weed control at 500 ppm: rate 500 ppm; for pest or weed control at 250 ppm: rate 250 ppm
Procedure, shortened: as §2

[7] = test system: Corn (#14 3377) (Zea mays); experiment: Postemergence herbicidal activity, selectivity to corn; assay type: in vivo; details: post-emergence, 336 h, Table 4, rate 62.5 (unit inferred), crop injury, read-out: Post-emergent % control ZEAMX
Experimental: as §1

[8] = test system: Pigweed (redroot) (Amaranthus retroflexus); experiment: Preemergence herbicidal activity, soil spray; assay type: in vivo; details: Amaranthus retroflexus, pre-emergence, 504 h, Table 5, visual score after 3 weeks, read-out: Pre-emergent % control AMARE; for pest or weed control at 560 ppm: rate 560 ppm
Procedure, shortened: (§3)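 After seeding into loam:sand (70 to 30), pots received a uniform soil-surface spray of the compound, diluted serially from 97:3 acetone:dimethyl sulfoxide stocks with aqueous 0.1% Tween 155; carrier-sprayed pots served as controls. Plants grew under greenhouse conditions of about 23-29° C by day and 22-28° C by night.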

[9] = test system: Crabgrass(large) (Digitaria sanguinalis); experiment: Preemergence herbicidal activity, soil spray; assay type: in vivo; details: Digitaria sanguinalis, pre-emergence, 504 h, Table 5, visual score after 3 weeks, read-out: Pre-emergent % control DIGSA; for pest or weed control at 560 ppm: rate 560 ppm
Procedure, shortened: as §3

[10] = test system: Lambsquarter (Chenopodium album); experiment: Preemergence herbicidal activity, soil spray; assay type: in vivo; details: Chenopodium album, pre-emergence, 504 h, Table 5, visual score after 3 weeks, read-out: Pre-emergent % control CHEAL; for pest or weed control at 560 ppm: rate 560 ppm, 100 complete kill or no germination
Procedure, shortened: as §3

[11] = test system: Giant Foxtail (Setaria faberi); experiment: Preemergence herbicidal activity, soil spray; assay type: in vivo; details: Setaria faberi, pre-emergence, 504 h, Table 5, visual score after 3 weeks, read-out: Pre-emergent % control SETFA; for pest or weed control at 560 ppm: rate 560 ppm
Procedure, shortened: as §3

| SMILES | pest or weed control at 62.5 µg/mL [1] | pest or weed control at 500 ppm [2] | pest or weed control at 62.5 µg/mL ([3]; Table 3) | Post-emergent % control AMARE ([3]; Table 4) | pest or weed control at 500 ppm [4] | pest or weed control at 500 ppm [5] | pest or weed control at 500 ppm [6] | melting point | pest or weed control at 62.5 µg/mL [7] | pest or weed control at 560 ppm [8] | pest or weed control at 560 ppm [9] | pest or weed control at 560 ppm [10] | pest or weed control at 560 ppm [11] | pest or weed control at 62.5 µg/mL ([3]; Table 4) | further results |
| --- | --- | --- | --- | --- | --- | --- | --- | --- | --- | --- | --- | --- | --- | --- | --- |
| COC(=O)c1nc(-c2ccc(F)cc2)cc(N)c1Cl [Compound 43, Methyl 4-amino-3-chloro-6-(4-fluorophenyl)pyridine-2-carboxylate] | 10% | 100% | 100% | 100% | 95% | 100% | 100% | 125 °C | 0% | 100% | 100% | 100% | 98% |  |  |
| COC(=O)c1nc(-c2ccc(C)c(C)c2)cc(N)c1Cl [Compound 12, methyl 4-amino-3-chloro-6-(3,4-dimethylphenyl)pyridine-2-carboxylate] | 0% | 100% | 70% | 70% | 95% | 95% | 30% | 154 to 156 °C | 10% | 100% | 40% | 98% | 30% |  |  |
| Nc1cc(-c2ccc(Cl)cc2Cl)nc(C(=O)O)c1Cl [Compound 146, 4-Amino-3-chloro-6-(2,4-dichlorophenyl)pyridine-2-carboxylic acid] |  |  |  |  |  |  |  | 176 to 177 °C | 0% | 100% | 80% | 100% | 90% | 100% | pest or weed control at 250 ppm [2]: 100%; pest or weed control at 125 ppm ([2]; Table 2, rate 125 ppm): 100%; pest or weed control at 250 ppm [4]: 85%; pest or weed control at 125 ppm ([4]; Table 2, rate 125 ppm): 75%; pest or weed control at 250 ppm [5]: 100%; pest or weed control at 125 ppm ([5]; Table 2, rate 125 ppm): 100%; pest or weed control at 250 ppm [6]: 98%; pest or weed control at 125 ppm ([6]; Table 2, rate 125 ppm): 95% |
| Cc1cc(Cl)ccc1-c1cc(N)c(Cl)c(C(=O)O)n1 [Compound 155, 4-Amino-3-chloro-6-(4-chloro-2-methylphenyl)pyridine-2-carboxylic acid] |  |  |  |  |  |  |  | 153 to 154 °C | 0% |  |  |  |  | 100% |  |
| COC(=O)c1nc(-c2ccc(F)cc2Cl)cc(N)c1Cl [Compound 58, Methyl 4-amino-3-chloro-6-(2-chloro-4-fluorophenyl)pyridine-2-carboxylate] |  | 100% |  |  | 70% | 100% | 70% | 155 to 157 °C | 0% |  |  |  |  | 100% |  |
| COC(=O)c1nc(-c2ccc(Cl)cc2F)cc(NC(C)=O)c1Cl [Compound 52, Methyl 4-acetamido-3-chloro-6-(4-chloro-2-fluorophenyl)pyridine-2-carboxylate] | 10% | 100% | 70% |  | 90% | 100% | 40% | 134 to 135 °C |  |  |  |  |  |  | pest or weed control at 140 ppm ([8]; rate 140 ppm): 100%; pest or weed control at 140 ppm ([9]; rate 140 ppm): 100%; pest or weed control at 140 ppm ([10]; rate 140 ppm): 100%; pest or weed control at 140 ppm ([11]; rate 140 ppm): 95% |
| COC(=O)c1nc(-c2ccc(C)cc2)cc(N)c1Cl [Compound 20, Methyl 4-amino-3-chloro-6-(4-methylphenyl)pyridine-2-carboxylate] | 10% |  | 100% |  |  |  |  | 111 to 113 °C |  | 100% | 100% | 100% | 100% |  | pest or weed control at 250 ppm [2]: 100%; pest or weed control at 250 ppm [4]: 70%; pest or weed control at 250 ppm [5]: 100%; pest or weed control at 250 ppm [6]: 50% |
| COC(=O)c1nc(-c2ccc3c(c2)OCO3)cc(N)c1Cl [Compound 29, Methyl 4-amino-3-chloro-6-(3,4-methylenedioxyphenyl)pyridine-2-carboxylate] | 10% | 100% | 90% |  | 95% | 100% | 80% | 184 °C |  | 95% | 100% | 100% | 90% |  |  |
| COC(=O)c1nc(-c2ccc(Cl)cc2C)cc(N)c1Cl [Compound 45, Methyl 4-amino-3-chloro-6-(4-chloro-2-methylphenyl)pyridine-2-carboxylate] |  |  |  |  |  |  |  | 114 to 115 °C | 0% |  |  |  |  | 100% |  |
| COC(=O)c1nc(-c2ccc(Cl)cc2)cc(NC(C)=O)c1Cl [Compound 53, Methyl 4-acetamido-3-chloro-6-(4-chlorophenyl)pyridine-2-carboxylate] | 0% |  | 70% | 70% |  |  |  | 151 to 152 °C | 10% | 100% | 100% | 100% | 100% |  |  |
